# Experimental data reported in US9315503B2, “Kinase inhibitors” (CHIESI FARMACEUTICI S.p.A., priority 2011, dated 2016).
# pIC50: −log10 of the molar value. Structures can show the parent of a compound that is named as a salt.
# Assays:
# [1] = system: LPS-stimulated TNFα release from PBMCs; assay: LPS-stimulated PBMC TNFα release assay; type: cell-based; settings: inhibition of TNFα release, human PBMCs, LPS 10 ng/ml, 18 h, ELISA, read-out: p38α inhibition (IC50 values)
# Procedure, shortened: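 TNFα in supernatants measured by ELISA after 18 h LPS (10 ng/ml) challenge of human PBMCs given 1 h compound pretreatment at 37 °C in medium with 1% FBS. Percent inhibition versus control release fitted to dose-response curves for IC50; at least three independent runs.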
# [2] = target: T1, p38alpha (Homo sapiens, UniProt Q16539); assay: P38Alpha enzyme inhibition assay (Alphascreen kinase activity assay); type: biochemical; settings: 100 pM p38alpha, 250 μM ATP, 2 hours pre-incubation at 25° C., read-out: p38α inhibition (IC50 values)
# T1 construct: purchased Invitrogen PV3304
# Procedure, shortened: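 AlphaScreen read-out: after an EDTA stop, an anti-phospho-ATF2 antibody with Protein A acceptor and donor beads measured substrate phosphorylation. Compounds sat 2 h at 25°C with 100 pM p38α and 0.3 µg/ml ATF-2 fusion protein (pH 7.5, 1% DMSO) before 250 µM ATP was added for 1 h. IC50 from dose-response.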
# T1 sequence (Q16539 whole entry): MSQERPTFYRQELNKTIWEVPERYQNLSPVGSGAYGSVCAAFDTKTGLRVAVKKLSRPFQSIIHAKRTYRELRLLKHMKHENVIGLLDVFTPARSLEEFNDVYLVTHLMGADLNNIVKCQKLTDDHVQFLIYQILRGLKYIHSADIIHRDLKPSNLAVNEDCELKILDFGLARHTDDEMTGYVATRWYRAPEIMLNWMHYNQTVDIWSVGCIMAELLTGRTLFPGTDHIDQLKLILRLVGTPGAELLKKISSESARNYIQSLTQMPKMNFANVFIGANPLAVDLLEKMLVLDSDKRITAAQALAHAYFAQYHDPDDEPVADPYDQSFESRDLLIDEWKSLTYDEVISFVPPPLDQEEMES
Compound,pIC50 [1],pIC50 [2]
"Cc1ccc(-n2nc(C(C)(C)C)cc2NC(=O)N[C@H]2CC[C@@H](Oc3ccc4nnc(N5CC[C@@H](CO)C5)n4c3)c3ccccc32)cc1 [Example 93, 1-(5-tert-Butyl-2-p-tolyl-2H-pyrazol-3-yl)-3-{(1S,4R)-4-[3-((R)-3-hydroxymethyl-pyrrolidin-1-yl)-[1,2,4]triazolo[4,3-a]pyridin-6-yloxy]-1,2,3,4-tetrahydro-naphthalen-1-yl}-urea]",> 8.00,> 8.00
"Cc1ccc(-n2nc(C(C)(C)C)cc2NC(=O)N[C@H]2CC[C@@H](Oc3ccc4nnc(N5CCN(CCO)CC5)n4c3)c3ccccc32)cc1 [Example 94, 1-(5-tert-Butyl-2-p-tolyl-2H-pyrazol-3-yl)-3-((1S,4R)-4-{3-[4-(2-hydroxy-ethyl)-piperazin-1-yl]-[1,2,4]triazolo[4,3-a]pyridin-6-yloxy}-1,2,3,4-tetrahydro-naphthalen-1-yl)-urea]",7.00 to 8.00,> 8.00
C[C@H]1CCCCN1c1nnc2ccc(O[C@@H]3CC[C@H](NC(=O)Nc4cc(C(C)(C)C)nn4-c4cccc(OCCN(C)C)c4)c4ccccc43)cn12 [Example 95],> 8.00,> 8.00
"C[C@@H]1CCC[C@H](C)N1c1nnc2ccc(O[C@@H]3CC[C@H](NC(=O)Nc4cc(C(C)(C)C)nn4-c4cccc(OCCN(C)C)c4)c4ccccc43)cn12 [Example 96, 1-{5-tert-Butyl-2-[3-(2-dimethylamino-ethoxy)-phenyl]-2H-pyrazol-3-yl}-3-{(1S,4R)-4-[3-(cis-2,6-dimethyl-piperidin-1-yl)-[1,2,4]triazolo[4,3-a]pyridin-6-yloxy]-1,2,3,4-tetrahydro-naphthalen-1-yl}-urea formate salt]",> 8.00,> 8.00
"C[C@H]1CCCCN1c1nnc2ccc(O[C@@H]3CC[C@H](NC(=O)Nc4cc(C(C)(C)C)nn4-c4cccc(CN5CCOCC5)c4)c4ccccc43)cn12 [Example 97, 1-[5-tert-Butyl-2-(3-morpholin-4-ylmethyl-phenyl)-2H-pyrazol-3-yl]-3-{(1S,4R)-4-[3-((S)-2-methyl-piperidin-1-yl)-[1,2,4]triazolo[4,3-a]pyridin-6-yloxy]-1,2,3,4-tetrahydro-naphthalen-1-yl}-urea formate salt]",> 8.00,> 8.00
"C[C@H]1CCCCN1c1nnc2ccc(O[C@@H]3CC[C@H](NC(=O)Nc4cc(C(C)(C)C)nn4-c4cccc(CN5CCN(C)CC5)c4)c4ccccc43)cn12 [Example 98, 1-{5-tert-Butyl-2-[3-(4-methyl-piperazin-1-ylmethyl)-phenyl]-2H-pyrazol-3-yl}-3-{(1S,4R)-4-[3-((S)-2-methyl-piperidin-1-yl)-[1,2,4]triazolo[4,3-a]pyridin-6-yloxy]-1,2,3,4-tetrahydro-naphthalen-1-yl}-urea formate salt]",> 8.00,> 8.00
"Cc1ccc(-n2nc(C(C)(C)C)cc2NC(=O)N[C@H]2CC[C@@H](Oc3ccc4nnc(C5(N(C)C)CCCC5)n4c3)c3ccccc32)cc1 [Example 99, 1-(5-tert-Butyl-2-p-tolyl-2H-pyrazol-3-yl)-3-{(1S,4R)-4-[3-(1-dimethylamino-cyclopentyl)-[1,2,4]triazolo[4,3-a]pyridin-6-yloxy]-1,2,3,4-tetrahydro-naphthalen-1-yl}-urea]",> 8.00,> 8.00
"Cc1ccc(-n2nc(C(C)(C)C)cc2NC(=O)N[C@H]2CC[C@@H](Oc3ccc4nnc(N5[C@H](C)CCC[C@@H]5C)n4c3)c3ccccc32)cc1 [Example 100, 1-(5-tert-Butyl-2-p-tolyl-2H-pyrazol-3-yl)-3-{(1S,4R)-4-[3-((2S,6R)-2,6-dimethyl-piperidin-1-yl)-[1,2,4]triazolo[4,3-a]pyridin-6-yloxy]-1,2,3,4-tetrahydro-naphthalen-1-yl}-urea]",> 8.00,> 8.00
"Cc1ccc(-n2nc(C(C)(C)C)cc2NC(=O)N[C@H]2CC[C@@H](Oc3ccc4nnc(N)n4c3)c3ccccc32)cc1 [Example 101, 1-[(1S,4R)-4-(3-Amino-[1,2,4]triazolo[4,3-a]pyridin-6-yloxy)-1,2,3,4-tetrahydro-naphthalen-1-yl]-3-(5-tert-butyl-2-p-tolyl-2H-pyrazol-3-yl)-urea]",> 8.00,> 8.00
"Cc1ccc(-n2nc(C(C)(C)C)cc2NC(=O)N[C@H]2CC[C@@H](Oc3ccc4nnc(N5CCCCC5)n4c3)c3ccccc32)cn1 [Example 102, 1-[5-tert-Butyl-2-(6-methyl-pyridin-3-yl)-2H-pyrazol-3-yl]-3-[(1S,4R)-4-(3-piperidin-1-yl-[1,2,4]triazolo[4,3-a]pyridin-6-yloxy)-1,2,3,4-tetrahydro-naphthalen-1-yl]-urea]",> 8.00,> 8.00
"CC(C)N(c1nnc2ccc(O[C@@H]3CC[C@H](NC(=O)Nc4cc(C(C)(C)C)nn4-c4cccc(OCCN(C)C)c4)c4ccccc43)cn12)C(C)C [Example 103, 1-{5-tert-Butyl-2-[3-(2-dimethylamino-ethoxy)-phenyl]-2H-pyrazol-3-yl}-3-[(1S,4R)-4-(3-diisopropylamino-[1,2,4]triazolo[4,3-a]pyridin-6-yloxy)-1,2,3,4-tetrahydro-naphthalen-1-yl]-urea]",> 8.00,> 8.00
"COc1c(NC(=O)N[C@H]2CC[C@@H](Oc3ccc4nnc(N5CCCCC5)n4c3)c3ccccc32)cc(C(C)(C)C)cc1NS(C)(=O)=O [Example 104, N-(5-tert-Butyl-2-methoxy-3-{3-[(1S,4R)-4-(3-piperidin-1-yl-[1,2,4]triazolo[4,3-a]pyridin-6-yloxy)-1,2,3,4-tetrahydro-naphthalen-1-yl]-ureido}-phenyl)-methanesulfonamide]",> 8.00,> 8.00
"Cc1ccc(-n2nc(C(C)(C)C)cc2NC(=O)N[C@H]2CC[C@@H](Oc3cc(C)c4nnc([C@@H]5CCCN5C)n4c3)c3ccccc32)cc1 [Example 105, 1-(5-tert-Butyl-2-p-tolyl-2H-pyrazol-3-yl)-3-{(1S,4R)-4-[8-methyl-3-((S)-1-methyl-pyrrolidin-2-yl)-[1,2,4]triazolo[4,3-a]pyridin-6-yloxy]-1,2,3,4-tetrahydro-naphthalen-1-yl}-urea]",> 8.00,> 8.00
"CN1CCN(Cc2ccc(-n3nc(C(C)(C)C)cc3NC(=O)N[C@H]3CC[C@@H](Oc4ccc5nnc(N6CCCCC6)n5c4)c4ccccc43)cc2)CC1 [Example 106, 1-{5-tert-Butyl-2-[4-(4-methyl-piperazin-1-ylmethyl)-phenyl]-2H-pyrazol-3-yl}-3-[(1S,4R)-4-(3-piperidin-1-yl-[1,2,4]triazolo[4,3-a]pyridin-6-yloxy)-1,2,3,4-tetrahydro-naphthalen-1-yl]-urea]",> 8.00,> 8.00
"Cn1cc(-n2nc(C(C)(C)C)cc2NC(=O)N[C@H]2CC[C@@H](Oc3ccc4nnc(N5CCCCC5)n4c3)c3ccccc32)cn1 [Example 107, 1-(3-tert-Butyl-1′-methyl-1′H-[1,4′]bipyrazolyl-5-yl)-3-[(1S,4R)-4-(3-piperidin-1-yl-[1,2,4]triazolo[4,3-a]pyridin-6-yloxy)-1,2,3,4-tetrahydro-naphthalen-1-yl]-urea]",> 8.00,> 8.00
"CN(C)CCn1cc(-n2nc(C(C)(C)C)cc2NC(=O)N[C@H]2CC[C@@H](Oc3ccc4nnc(N5CCCCC5)n4c3)c3ccccc32)cn1 [Example 108, 1-[3-tert-Butyl-1′-(2-dimethylamino-ethyl)-1′H-[1,4′]bipyrazolyl-5-yl]-3-[(1S,4R)-4-(3-piperidin-1-yl-[1,2,4]triazolo[4,3-a]pyridin-6-yloxy)-1,2,3,4-tetrahydro-naphthalen-1-yl]-urea]",> 8.00,> 8.00
"COc1c(NC(=O)N[C@H]2CC[C@@H](Oc3ccc4nnc([C@@H]5CCCN5C)n4c3)c3ccccc32)cc(C(C)(C)C)cc1NS(C)(=O)=O [Example 109, N-[5-tert-Butyl-2-methoxy-3-(3-{(1S,4R)-4-[3-((S)-1-methyl-pyrrolidin-2-yl)-[1,2,4]triazolo[4,3-a]pyridin-6-yloxy]-1,2,3,4-tetrahydro-naphthalen-1-yl}-ureido)-phenyl]-methanesulfonamide formate salt]",> 8.00,> 8.00
"C[C@H]1CCCCN1c1nnc2ccc(O[C@@H]3CC[C@H](NC(=O)Nc4cc(C(C)(C)C)nn4CCO)c4ccccc43)cn12 [Example 110, 1-[5-tert-Butyl-2-(2-hydroxy-ethyl)-2H-pyrazol-3-yl]-3-{(1S,4R)-4-[3-((S)-2-methyl-piperidin-1-yl)-[1,2,4]triazolo[4,3-a]pyridin-6-yloxy]-1,2,3,4-tetrahydro-naphthalen-1-yl}-urea]",> 8.00,> 8.00
"C[C@H]1CCCCN1c1nnc2ccc(O[C@@H]3CC[C@H](NC(=O)Nc4cc(C(C)(C)C)on4)c4ccccc43)cn12 [Example 111, 1-(5-tert-Butyl-isoxazol-3-yl)-3-{(1S,4R)-4-[3-((S)-2-methyl-piperidin-1-yl)-[1,2,4]triazolo[4,3-a]pyridin-6-yloxy]-1,2,3,4-tetrahydro-naphthalen-1-yl}-urea]",> 8.00,> 8.00
"CC(C)(C)c1cc(NC(=O)N[C@H]2CC[C@@H](Oc3ccc4nnc(N5CCCCC5)n4c3)c3ccccc32)n(-c2cnn(CCN3CCOCC3)c2)n1 [Example 112, 1-[3-tert-Butyl-1′-(2-morpholin-4-yl-ethyl)-1′H-[1,4′]bipyrazolyl-5-yl]-3-[(1S,4R)-4-(3-piperidin-1-yl-[1,2,4]triazolo[4,3-a]pyridin-6-yloxy)-1,2,3,4-tetrahydro-naphthalen-1-yl]-urea formate salt]",> 8.00,> 8.00
